# From patent publication US20090062338A1, “[…] USE IN TREATING OR PREVENTING CARDIOVASCULAR DISEASE” (priority 2005, published 2009)
# Key:
# Caspase 3 [1] = test: Gene expression in adipose tissue of mice fed Tempol, Affymetrix MOE430A 2.0 array; type: in vivo; conditions: 5 g/kg of diet from 12 through 15 months
# Protocol: (§1) In a further gene expression study, Tempol was administered to experimental mice at a dose of 5 g/kg of diet from 12 months through 15 months. Mice receiving the same diet without the addition of Tempol were used as a negative control. At the age of 15 months, the adipose tissue of the experimental animals was obtained. The expression of a broad spectrum of genes in the adipose tissue was assessed using chip-based microarray technology. Specifically, in this case an Affymetrix MOE430A 2.0 array, containing 12,960 genes, was employed. Such chips are well known in the art and are widely used to assess gene expression.
# [2] = test system: Adiponectin, C1Q and collagen domain containing; test: as above; type: in vivo; conditions: 5 g/kg of diet from 12 through 15 months
# Protocol: as §1
# hepatocyte growth factor [3] = test: Gene expression in cardiac tissue of mice fed Tempol, chip-based microarray; type: in vivo; conditions: 5 mg/g of food from 14 to 31 months of age
# Protocol: To assess the effects of Tempol on gene expression, Tempol was administered to experimental mice at a dose of 5 mg/g of food from 14 months to 31 months after birth. Mice receiving the same food without the addition of Tempol were used as a negative control. At the age of 31 months, the experimental animals were sacrificed and the hearts were surgically removed. The expression of a broad spectrum of genes in the cardiac tissue was assessed using chip-based microarray technology. Such chips are well known in the art and are widely used to assess gene expression.
# endothelium = conditions: angiotensin II infused rats, introduction of Tempol; cited from earlier work
# hepatocyte growth factor [4] = test: Protein level in patient after Tempol treatment; type: in vivo, human; conditions: 1500 mg per day for 180 days
# Protocol: (§2) A 70-kilogram patient three days post myocardial infarction is administered a dose of 1500 mg of Tempol per day for 180 days. This may be administered in a single dose, or may be administered as a number of smaller doses over a 24-hour period: for example, three 500-mg doses at eight-hour intervals. Following treatment, the protein level of hepatocyte growth factor and adiponectin in the plasma is increased, and the protein level of caspase 3 is decreased.
# as §2, with “at risk for” for “three days post”
# adiponectin = test: Protein level in patient after Tempol treatment; type: in vivo, human; conditions: 1500 mg per day for 180 days
# Protocol: as §2
# as §2, with “at risk for” for “three days post”
# caspase 3 [5] = test: Protein level in patient after Tempol treatment; type: in vivo, human; conditions: 1500 mg per day for 180 days
# Protocol: as §2
# as §2, with “at risk for” for “three days post”
# [6] = Example 1: 70-kg patient three days post myocardial infarction
# [7] = Example 2: 70-kg patient at risk for myocardial infarction
smiles,measurement,setting,value
"CC1(C)CC(O)CC(C)(C)N1[O] [Tempol, 4-hydroxy-2,2,6,6-tetramethylpiperidine-1-oxyl]","Caspase 3 expression, mean (Tempol-treated mice)",Caspase 3 [1]; microarray signal,414
same,"Caspase 3 expression, fold change vs control mice (signed)",Caspase 3 [1]; negative = decrease,−1.47 fold
same,"Caspase 3 expression, fold decrease vs control mice",Caspase 3 [1]; stated as decreased,1.47 fold
same,"Adiponectin expression, fold change (increase) vs control mice",[2],1.22 fold
same,"Adiponectin expression, mean (Tempol-treated mice)",[2]; microarray signal,33876
same,"HGF expression, fold change (increase) vs control mice",hepatocyte growth factor [3],3.2 fold
same,"HGF (ORF W12681) expression, TEMPOL-treated mouse tp51",hepatocyte growth factor [3]; microarray signal,152
same,"HGF (ORF W12681) expression, TEMPOL-treated mouse tp52",hepatocyte growth factor [3]; microarray signal,151
same,"HGF (ORF W12681) expression, TEMPOL-treated mouse tp53",hepatocyte growth factor [3]; microarray signal,207
same,Deleterious effects of angiotensin II on the endothelium,endothelium,ameliorated
same,Protein level of hepatocyte growth factor in the plasma,hepatocyte growth factor [4]; [6],increased
same,Protein level of hepatocyte growth factor in the plasma,hepatocyte growth factor [4]; [7],increased
same,Protein level of adiponectin in the plasma,adiponectin; [6],increased
same,Protein level of adiponectin in the plasma,adiponectin; [7],increased
same,Protein level of caspase 3,caspase 3 [5]; [6],decreased
same,Protein level of caspase 3,caspase 3 [5]; [7],decreased
